Results: paper PMC6261997, “Synergistic enzymatic and bioorthogonal reactions for selective prodrug activation in living systems” (Nature Communications, 2018)

Assays:
[1] = Self-assembly and hydrogelation on addition of alkaline phosphatase (ALP); assay type: physicochemical
Procedure: The synthesis of the assembly precursor (NapK(Tz)YpF, 2, Fig. 2a) was straightforward (see Supplementary Methods for a detailed protocol). Because KYF was determined to be an excellent self-assembly motif in a tri-peptide census survey, we constructed our assembling molecules based on this sequence. The conjugation of a strong π–π stacking moiety, namely, a naphthalene group, to the N terminus may further enhance the self-assembly potential of this molecule. Phosphorylation on tyrosine (Y) enabled the responsiveness of this motif to phosphatase. All of these components were sequentially conjugated via typical Fmoc-based solid-phase peptide synthesis (SPPS) to yield NapKYpF (1). The capability of self-assembly and hydrogelation of 1 was confirmed by the addition of 10 U mL^−1 alkaline phosphatase (ALP) into a solution of 1 (Supplementary Fig. 1). The dephosphorylated product of 1 formed transparent hydrogels with a network of uniform nanofibres (Supplementary Fig. 2), and the critical hydrogelation concentration was 1.0 mg mL^−1. The ε-amine of Lys on 1 was conjugated with the Tz derivative Tz-COOH (2-(4-(6-methyl-1,2,4,5-tetrazin-3-yl)phenyl) acetic acid) via an NHS-mediated ester–amide exchange reaction to yield 2. […] Upon the addition of ALP (10 U mL^−1) into the solution of 2, a transparent purple hydrogel was formed within 1 h (Fig. 2b inset), and the critical hydrogelation concentration was 1.0 mg mL^−1 (Supplementary Fig. 3). Similar to the formation of a typical hydrogel, investigation by transmission electron microscopy (TEM) confirmed the existence of numerous uniform nanofibres, each with a diameter of approximately 12 nm, which was close to that of hydrogel 1 (Fig. 2b).

[2] = test system: HUVECs; assay: Intracellular Tz accumulation by fluorescence liberation from TCO-CMR, HUVECs; assay type: cell-based; details: even in the presence of 500 μM 2
Procedure: Next, we tested the intracellular accumulation of Tz via EISA in an attempt to differentiate cancer cells from normal cells. First, we investigated the accumulation of Tz in HeLa cells and HUVECs over time via fluorescence liberation from TCO-CMR (Fig. 3a). Each group of cells was pre-incubated with different concentrations of 2 ranging from 100 to 500 μM for 1, 2, 4, 6, 15 or 24 h. The cells were then washed with PBS thoroughly before the addition of an excessive amount of TCO-CMR (100 μL, 50 μM), and the reaction of TCO-CMR with the intracellular accumulated Tz was allowed to proceed for up to 24 h (Supplementary Fig. 8). In this experimental setting, the total liberated fluorescence was proportional to the amount of 3 accumulated inside the cells. […] Therefore, the optimized concentration of 2 (e.g. 500 μM) and incubation time (e.g. 6 h) were selected to differentiate between cancer and normal cells according to liberated fluorescence intensity (Fig. 3c). […]
All cells were purchased from the National Infrastructure of Cell Line Resource (Beijing, China). […] After incubation for different durations (1–24 h), the cells were rinsed with PBS, and then 100 μL of 50 μM TCO-CMR (dissolved in PBS) was added for real-time detection of the fluorescence intensity of coumarin in a plate reader (Perkin Elmer).

[3] = Stability in human serum (UPLC-MS/MS); assay type: in vitro ADME; details: 10 μM in human serum
Procedure: (Sigma, St. Louis, MO). Then, 9 µL Na125I (2.4 mCi) (Beijing Atom High Tech, Beijing, China) was added and the mixture was kept at room temperature for 1 h until the labeling ratio reached to more than 95%. For SPECT/CT imaging, a mixture of 50 mg kg-1 2 and 0.875 mg kg-1 125I labelled 2 (700 µCi) were intravenously administrated to investigate the distribution of 2/3 and 0.875 mg kg-1 125I labelled 2 (700 µCi) was administrated as a control. After anesthetization with 2% isoflurane in oxygen, SPECT and helical CT scans of the mice were performed at 2, 5, 7 and 25 h on a NanoScan SPECT/CT imaging system (Mediso, Budapest, Hungary).
UPLC-MS/MS analyses: UPLC-MS/MS metabolomic analyses were performed using a Triple Quadrupole Liquid Chromatograph Mass Spectrometer (LCMS 8050, Shimadzu) in multiple reaction-monitoring mode (MRM). Data acquisition and processing were performed using LabSolutions version 5 software. Measurements were carried out at 40°C. […]
Plasmatic stability of compound 2 and TCO-Dox: To evaluate the stability of 2 and TCO-Dox under physiologically relevant conditions, compounds were incubated in human serum and the amount of the remaining intact compound (the corresponding dephosphorylated 3 was detected as well) was determined by UPLC-MS/MS. […] After centrifugation at 1559 g for 7 min and filtration, 2 µL of the supernatant was analyzed by UPLC-MS/MS (n=5).

Cc1nnc(-c2ccc(CC(=O)NCCCCC(NC(=O)Cc3ccc4ccccc4c3)C(=O)NC(Cc3ccc(OP(=O)(O)O)cc3)C(=O)NC(Cc3ccccc3)C(=O)O)cc2)nn1 (stereo not shown) [compound 2, NapK(Tz)YpF]
time to formation of hydrogel ([1]; ALP 10 U mL^−1): ≤ 1 h
critical hydrogelation concentration ([1]; after addition of 10 U mL^−1 ALP (dephosphorylated product)): 1.0 mg/mL
liberated fluorescence in HUVECs [2]: only a negligible amount of fluorescence
stability in serum/plasma [3]: partially transformed to the dephosphorylated product 3 in plasma
